The test system of data set [1] is HT-29. In words: Antiproliferative activity against human HT-29 cells assessed as inhibition of cell growth at 20 uM measured for 48 hrs by MTT assay relative to control. It is filed as functional.
Data set [2] concerns HCT-15. In words: Antiproliferative activity against human HCT-15 cells assessed as inhibition of cell growth at 20 uM measured for 48 hrs by MTT assay relative to control. It is filed as functional.
Data set [3] concerns A549. Kind of data set: Antiproliferative activity against human A549 cells assessed as inhibition of cell growth at 20 uM measured for 48 hrs by MTT assay relative to control. It is filed as functional. (In general: Tetrazolium assays rely on reduction of a dye to a coloured formazan, in cell work by metabolically active cells.)
Data set [4] relates to MDA-MB-231. Kind of data set: Antiproliferative activity against human MDA-MB-231 cells assessed as inhibition of cell growth at 20 uM measured for 48 hrs by MTT assay relative to control. The format is functional.
The test system of data set [5] is HeLa. In words: Antiproliferative activity against human HeLa cells assessed as inhibition of cell growth at 20 uM measured for 48 hrs by MTT assay relative to control. The format is functional.
The next data set concerns HL-60. In words: Cytotoxicity against human HL-60 cells assessed as reduction in cell growth incubated for 24 hrs by MTT assay. The conditions noted are these: HL-60, 24 h. It is filed as functional, cell-based.
Data set [6] can be described thus: Antiproliferative activity against human MCF7/MX cells assessed as reduction in cell growth incubated for 24 hrs by MTT assay. It is filed as functional, cell-based.
Data set [7] concerns HCT-116. In words: Cytotoxicity against human HCT-116 cells assessed as reduction in cell viability incubated for 24 hrs by MTT assay. The format is functional, cell-based. As to conditions: HCT-116, 24 h.
A further data set deals with RS4-11. In words: Antiproliferative activity against human RS4-11 cells assessed as reduction in cell viability incubated for 72 hrs by MTT assay. As to conditions: RS4-11, 72 h. The format is functional, cell-based.
Data set [8] has as its system A549. In words: Cytotoxicity against human A549 cells. The format is functional, cell-based.
Data set [9] concerns MCF7. Kind of data set: Antiproliferative activity against human MCF7 cells assessed as reduction in cell viability incubated for 72 hrs by MTT assay. As to conditions: MCF7, 72 h. The format is functional, cell-based.
The test system of data set [10] is A549. In words: Antiproliferative activity against human A549 cells assessed as reduction in cell viability incubated for 72 hrs by MTT assay. The format is functional, cell-based. The conditions noted are these: A549, 72 h.
The test system of data set [11] is MCF7. Kind of data set: Cytotoxicity against human MCF7 cells assessed as reduction in cell growth incubated for 24 hrs by MTT assay. It is filed as functional, cell-based. The conditions noted are these: MCF7, 24 h.
A short description of data set [12]: Cytotoxicity against HUVEC cells. It is filed as toxicity, cell-based. As to conditions: human.
The test system of data set [13] is A549. In words: Antiproliferative activity against human A549 cells assessed as reduction in cell growth incubated for 24 hrs by MTT assay. The format is functional, cell-based. As to conditions: A549, 24 h.
The subject of data set [14] is HepG2. Kind of data set: Antiproliferative activity against human HepG2 cells assessed as reduction in cell growth incubated for 24 hrs by MTT assay. The conditions noted are these: HepG2, 24 h. It is filed as functional, cell-based.
The test system of data set [15] is MCF7. In words: Antiproliferative activity against human MCF7 cells assessed as reduction in cell growth incubated for 24 hrs by MTT assay. The format is functional, cell-based. The conditions noted are these: MCF7, 24 h.
Data set [16] concerns HT-29. Kind of data set: Antiproliferative activity against human HT-29 cells assessed as reduction in cell viability incubated for 72 hrs by MTT assay. The format is functional, cell-based. The conditions noted are these: HT-29, 72 h.
The test system of the next data set is Jurkat. Kind of data set: Antiproliferative activity against human Jurkat cells assessed as reduction in cell viability incubated for 72 hrs by MTT assay. It is filed as functional, cell-based.
In data set [17] the test system is MCF7. Kind of data set: Antiproliferative activity against human MCF7 cells. The format is functional, cell-based.
A short description of data set [18]: Antiproliferative activity against HEK293 cells. The format is toxicity, cell-based. The conditions noted are these: human.
In data set [19] the test system is A549. In words: Antiproliferative activity against human A549 cells assessed as reduction in cell growth. It is filed as functional, cell-based.
A further data set deals with MG-63. In words: Antiproliferative activity against human MG-63 cells. It is filed as functional, cell-based.
For data set [20], the system named is A549. Kind of data set: Cytotoxicity against human A549 cells assessed as reduction in cell growth. It is filed as functional, cell-based.
For the next data set, the system named is BXPC-3. In words: Antiproliferative activity against human BXPC-3 assessed as reduction in cell growth. It is filed as functional, cell-based.
The nature of data set [21]: Anticancer activity against human MCF-10A cells assessed as reduction in cell viability measured for 24 hrs by MTT assay. It is filed as toxicity, cell-based.
For data set [22], the system named is MDA-MB-231. Kind of data set: Anticancer activity against human MDA-MB-231 cells assessed as reduction in cell viability measured for 24 hrs by MTT assay. It is filed as functional, cell-based. As to conditions: MDA-MB-231, 24 h.
In another data set the test system is Caco-2. Kind of data set: Cytotoxicity against human Caco-2 cells assessed as reduction in cell growth incubated for 24 hrs by MTT assay. As to conditions: Caco-2, 24 h. It is filed as functional, cell-based.
Data set [23] concerns HCT-15. In words: Antiproliferative activity against human HCT-15 cells assessed as inhibition of cell growth at 0.1 uM measured for 48 hrs by MTT assay relative to control. It is filed as functional.
Data set [24] concerns HeLa. In words: Cytotoxicity against human HeLa cells assessed as reduction in cell growth incubated for 24 hrs by MTT assay. The format is functional, cell-based.
The subject of data set [25] is A549. Kind of data set: Antiproliferative activity against human A549 cells assessed as inhibition of cell growth at 0.1 uM measured for 48 hrs by MTT assay relative to control. The format is functional.
Data set [26] has as its system HT-29. In words: Antiproliferative activity against human HT-29 cells assessed as reduction in cell growth by MTT assay. The format is functional, cell-based.
Data set [27] deals with HepG2. Kind of data set: Anticancer activity against human HepG2 cells. It is filed as functional, cell-based.
For data set [28], the system named is HCT-116. In words: Cytotoxicity against human HCT-116 cells assessed as reduction in cell growth incubated for 24 hrs by MTT assay. The format is functional, cell-based. The conditions noted are these: HCT-116, 24 h.
Another data set concerns DU-145. In words: Anticancer activity against human DU-145 cells. It is filed as functional, cell-based.
The test system of another data set is PC-3. Kind of data set: Anticancer activity against human PC-3 cells. It is filed as functional, cell-based.
For data set [29], the system named is HT-29. In words: Antiproliferative activity against human HT-29 cells assessed as inhibition of cell growth at 0.1 uM measured for 48 hrs by MTT assay relative to control. The format is functional. As to conditions: HT-29, 48 h, values are per cent of control.
Data set [30] relates to HepG2. In words: Antiproliferative activity against human HepG2 cells. The format is functional, cell-based.
Data set [31] relates to HepG2. In words: Cytotoxicity against human HepG2 cells assessed as reduction in cell growth incubated for 24 hrs by SRB assay. The format is functional, cell-based. The conditions noted are these: HepG2, 24 h. A general note: The SRB assay estimates cell density from bound dye.
The subject of data set [32] is MDA-MB-231. In words: Antiproliferative activity against human MDA-MB-231 cells assessed as inhibition of cell growth at 0.1 uM measured for 48 hrs by MTT assay relative to control. It is filed as functional.
Data set [33] deals with HeLa. Kind of data set: Antiproliferative activity against human HeLa cells assessed as inhibition of cell growth at 0.1 uM measured for 48 hrs by MTT assay relative to control. As to conditions: values are per cent of control. It is filed as functional.
The test system of another data set is PANC-1. Kind of data set: Antiproliferative activity against human PANC-1 cells by MTT assay. It is filed as functional, cell-based.
In data set [34] the test system is MCF7. Kind of data set: Cytotoxicity against human MCF7 cells after 24 hrs by MTT assay. The format is functional, cell-based. As to conditions: MCF7, 24 h.
The subject of data set [35] is HCT-116. In words: Cytotoxicity against human HCT-116 cells after 24 hrs by MTT assay. It is filed as functional, cell-based. The conditions noted are these: HCT-116, 24 h.
In data set [36] the test system is HepG2. Kind of data set: Cytotoxicity against human HepG2 cells after 24 hrs by MTT assay. It is filed as functional, cell-based. As to conditions: HepG2, 24 h.
Data set [37] in a line: Cytotoxicity against human MCF-10A cells measured after 24 hrs by MTT assay. The format is toxicity, cell-based.

Converted amounts (≈) assume the structure as drawn. Bounds are passed on as bounds.

For orientation: inhibition means the drop in the measured response relative to a control, in per cent. For `CCCCCCCCCCCCn1cnc(C(=O)OCC)c1N`, the inhibition at 20 µM with HT-29 [1] was found to be 82%; with HCT-15 [2], 52%; in the data set with A549 [3], 54%; in the data set on MDA-MB-231 [4] it was 69%; in the data set on HeLa [5], 85%.
For orientation: IC50 means the concentration at which inhibition is half-maximal. Regarding `COc1ccc(/C=C\c2cc(OC)c(OC)c(OC)c2)cc1O` [COMBRETASTATIN A4], the IC50 was found to be 0.77 µM with HL-60; 1.49 µM in [6]; 2.63 µM in the data set with HCT-116 [7]; 0.37 µM in the data set with RS4-11; 0.048 µM in the data set on A549 [8]; 0.005 µM with MCF7 [9]. For the same molecule, the IC50 stood at 3.1 µM with A549 [10]; 3.57 µM in the data set with MCF7 [11]; 119 µM in [12]; 0.86 µM in the data set on A549 [13]; 0.63 µM in the data set on HepG2 [14]; 0.43 µM in the data set on MCF7 [15]. In addition, the IC50 with HT-29 [16] was 0.18 µM; in the data set with Jurkat, 0.0008 µM.
In the case of `COc1ccc2[nH]c(=O)c(-c3nc(-c4ccccc4)c(-c4ccccc4)[nH]3)cc2c1`, the IC50 with MCF7 [17] is 50.1 µM; in data set [18], 86.5 µM; with A549 [19], 39.4 µM; in the data set with MG-63 it was 62 µM.
For the molecule `C#Cc1cccc(Nc2ncnc3cc(OCCOC)c(OCCOC)cc23)c1` [ERLOTINIB], the IC50 in the data set with A549 [20] was found to be 25.2 µM; in the data set with BXPC-3 it was 9.8 µM.
The matching figures for `COc1ccc2cc([C@H](C)C3=NC(Cc4ccccc4)C(=O)N3/N=C/c3ccc(N(C)C)cc3)ccc2c1` (stereo partly drawn): 9.4 µM and 18.3 µM.
As to `CCOC(=O)c1ccccc1-n1c(-c2c(O)[nH]c(=O)[nH]c2=O)cnc1C`, in data set [21], the IC50 at 24 h is > 100 µM. In the data set on MDA-MB-231 [22], the IC50 came to 53.6 µM.
On to `COc1cccc2c1C(=O)c1c(O)c3c(c(O)c1C2=O)C[C@@](O)(C(=O)CO)C[C@@H]3O[C@H]1C[C@H](N)[C@H](O)[C@H](C)O1` [DOXORUBICIN], for which the IC50 in the data set on Caco-2 was 5.17 µM; in the data set with HeLa [24], 1.25 µM; in the data set on HT-29 [26] it was 1 µM; in the data set with HepG2 [27], 0.62 µM; with HCT-116 [28] it was 5.64 µM; in the data set on DU-145, 4.6 µM. The IC50 was found to be 2.3 µM in the data set with PC-3, 0.86 µM in the data set on HepG2 [30], 0.42 µg/mL (≈ 0.773 µM) in the data set on HepG2 [31] and 1.4 µM in the data set with PANC-1. For the same molecule, the inhibition at 0.1 µM with HCT-15 [23] was determined as 94%; in the data set with A549 [25], 89%; in the data set on MDA-MB-231 [32], 83%. Further, the viability, % of control at 0.1 µM worked out at 93% in the data set with HT-29 [29] and 90% in the data set with HeLa [33].
`CC(=O)O[C@@]12CO[C@@H]1C[C@H](O)[C@@]1(C)C(=O)[C@H](O)C3=C(C)[C@@H](OC(=O)[C@H](O)[C@@H](NC(=O)OC(C)(C)C)c4ccccc4)C[C@@](O)([C@@H](OC(=O)c4ccccc4)[C@H]21)C3(C)C` [DOCETAXEL ANHYDROUS]: the IC50 stood at 11.1 µM in the data set with MCF7 [34], 14 µM with HCT-116 [35] and 8.13 µM in the data set with HepG2 [36]. In [37], this molecule had an IC50 at 24 h of 33.2 µM.

For the origin of these results see ChEMBL document CHEMBL6074649, “An insight into recent developments in imidazole based heterocyclic compounds as anticancer agents: Synthesis, SARs, and mechanism of actions” (Eur J Med Chem, 2024).
